Test system: CR mice
Experiment: MTD experiment, dose gradient by gavage
Type: in vivo
Conditions: for Survival number: 10 mice per dose
Method: Mice are commonly used rodents to evaluate the toxicity of a test sample and are also an important part of early preclinical safety evaluation. In this experiment, the toxicity of compound 50561 was tested by administering a dose gradient thereof to the mice by gavage and observing its toxicity.
This experiment was designed such that for each dose centration, 10 mice were tested, including half males and half females. The males each weighed about 18-23 grams, and the females each weighed about 17-21 grams. They were randomly grouped by a simple randomization procedure. All the animals used in the experiment weighed between ±20% of the average body weight of their respective genders. If there are not enough animals in the study to meet the weight range required thereby, notify the responsible person of the project to take reasonable measures. Animals must be adapted to the laboratory for at least three days. During this period, daily cage observation was conducted once a day, and a detailed clinical observation was necessary before the experiment. Any animal with symptoms or physical abnormalities would be reported to the attending veterinarian and responsible person of the project, and excluded whenever possible. Animals suitable for experimentation will be assigned to respective experimental groups according to the random grouping method described above.
During the experiment, after administration, all animals were observed continuously for 4 hours; from the end of administration till 3 days thereafter, observations were carried out twice each day, one in the morning and the other in the afternoon; and then observation was carried out once a day. Observations included but were not limited to: skin, hair, eyes, ears, nose, mouth, chest, abdomen, external genitals, limbs, and feet. The respiratory and circulatory systems, autonomic effects (such as salivation), and nervous system (such as tremors, convulsions, stress responses, and abnormal behaviors) should be focused on. Complete anatomical examinations would be performed on all animals that had died, were dying, or planned to be euthanized. Animals found dead outside of fixed working hours could be placed in the refrigerator overnight and dissected immediately on the next working day. At the end of the experiment (14th day after administration), all animals requiring autopsy would be euthanized and autopsied.
External abnormalities in animals, such as palpable masses, should be examined in detail. The skin would be cut along the midline of the abdomen, and any subcutaneous mass would be confirmed in conjunction with the findings in the observations of animal symptoms. […] Diseased organs were removed, weighed, recoded, and kept in a fixative fluid.

SMILES: O=C1C=C(OCc2ccc(F)cc2)[C@H](Cc2ccccc2)N1 [Compound 50561]
- Remarks: condition of the body (250 mg/kg): in good condition.
- Survival number (250 mg/kg by gavage): 10
- Remarks: Body weight decreased by (250 mg/kg, quickly recovered): about 2 g, which was quickly
- Remarks: Body weight decreased by (500 mg/kg): about 2 g; individual activity
- Remarks: condition of the body; organs of the dead individuals (500 mg/kg): in good condition. There
- Survival number (500 mg/kg by gavage): 8
- Remarks: organs in dead individuals (750 mg/kg): No abnormality of organs
- Survival number (750 mg/kg by gavage): 0
- Remarks: organs in dead individuals (1000 mg/kg): No abnormality of organs
- Survival number (1000 mg/kg by gavage): 0
- maximum tolerance (MTD) (CR mice, by gavage): < 500 mg/kg

Reference: patent publication US11130733B2, “4-OXO-alkylated tetramic acid compound, preparation method and use thereof” (BEIJING JOEKAI BIOTECH. LLC, priority 2017, dated 2021)
